Among the data in ChEMBL document CHEMBL3297690, “Discovery and development of Janus kinase (JAK) inhibitors for inflammatory diseases” (J Med Chem, 2014) are IC50 and Ki values, retold here.

Where only a bound is given, the exact number is not on record here.

The target in test [1] is T1, Tyrosine-protein kinase JAK2 (Homo sapiens, UniProt O60674).
Test [2] has as its target T2, Tyrosine-protein kinase JAK1 (Homo sapiens, UniProt P23458). In kind it is cell-based.
Test [3] addresses T2, Tyrosine-protein kinase JAK1.
Test [4] deals with T1, Tyrosine-protein kinase JAK2. In kind it is cell-based, Blood, CD34+ cell.
The target in test [5] is T3, Tyrosine-protein kinase JAK3 (Mus musculus, UniProt Q62137).
T3 sequence (Q62137 whole entry): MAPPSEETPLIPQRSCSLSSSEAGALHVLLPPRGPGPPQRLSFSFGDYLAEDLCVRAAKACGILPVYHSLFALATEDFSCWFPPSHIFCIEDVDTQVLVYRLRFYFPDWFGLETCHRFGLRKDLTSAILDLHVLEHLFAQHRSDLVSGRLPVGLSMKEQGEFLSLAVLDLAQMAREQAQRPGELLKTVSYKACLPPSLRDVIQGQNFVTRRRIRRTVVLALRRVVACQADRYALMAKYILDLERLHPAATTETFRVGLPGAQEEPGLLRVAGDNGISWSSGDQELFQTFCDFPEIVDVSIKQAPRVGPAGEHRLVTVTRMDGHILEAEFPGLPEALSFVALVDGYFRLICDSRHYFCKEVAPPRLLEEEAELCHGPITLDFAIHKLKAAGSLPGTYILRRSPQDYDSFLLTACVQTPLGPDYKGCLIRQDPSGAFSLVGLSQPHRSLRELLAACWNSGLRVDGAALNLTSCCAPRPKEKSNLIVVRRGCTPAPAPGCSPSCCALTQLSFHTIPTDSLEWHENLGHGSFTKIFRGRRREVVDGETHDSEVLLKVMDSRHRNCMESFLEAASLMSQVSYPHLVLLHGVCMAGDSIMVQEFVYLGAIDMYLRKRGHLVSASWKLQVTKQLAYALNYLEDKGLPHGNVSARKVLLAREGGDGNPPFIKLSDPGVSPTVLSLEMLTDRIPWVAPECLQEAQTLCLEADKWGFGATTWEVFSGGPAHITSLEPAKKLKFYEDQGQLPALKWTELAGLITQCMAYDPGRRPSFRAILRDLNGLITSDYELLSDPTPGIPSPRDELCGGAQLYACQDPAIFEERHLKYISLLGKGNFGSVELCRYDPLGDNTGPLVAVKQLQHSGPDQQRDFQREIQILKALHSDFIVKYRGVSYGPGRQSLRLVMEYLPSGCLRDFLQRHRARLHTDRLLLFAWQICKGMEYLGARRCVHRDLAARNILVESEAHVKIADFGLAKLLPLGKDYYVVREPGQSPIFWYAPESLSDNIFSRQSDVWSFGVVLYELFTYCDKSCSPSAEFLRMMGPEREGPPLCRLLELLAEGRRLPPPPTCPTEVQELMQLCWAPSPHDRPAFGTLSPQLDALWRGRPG
The test is classed as cell-based.

For test [6], the target named is T1, Tyrosine-protein kinase JAK2. The source holds these as a separate data set.

T1 sequence (O60674 whole entry): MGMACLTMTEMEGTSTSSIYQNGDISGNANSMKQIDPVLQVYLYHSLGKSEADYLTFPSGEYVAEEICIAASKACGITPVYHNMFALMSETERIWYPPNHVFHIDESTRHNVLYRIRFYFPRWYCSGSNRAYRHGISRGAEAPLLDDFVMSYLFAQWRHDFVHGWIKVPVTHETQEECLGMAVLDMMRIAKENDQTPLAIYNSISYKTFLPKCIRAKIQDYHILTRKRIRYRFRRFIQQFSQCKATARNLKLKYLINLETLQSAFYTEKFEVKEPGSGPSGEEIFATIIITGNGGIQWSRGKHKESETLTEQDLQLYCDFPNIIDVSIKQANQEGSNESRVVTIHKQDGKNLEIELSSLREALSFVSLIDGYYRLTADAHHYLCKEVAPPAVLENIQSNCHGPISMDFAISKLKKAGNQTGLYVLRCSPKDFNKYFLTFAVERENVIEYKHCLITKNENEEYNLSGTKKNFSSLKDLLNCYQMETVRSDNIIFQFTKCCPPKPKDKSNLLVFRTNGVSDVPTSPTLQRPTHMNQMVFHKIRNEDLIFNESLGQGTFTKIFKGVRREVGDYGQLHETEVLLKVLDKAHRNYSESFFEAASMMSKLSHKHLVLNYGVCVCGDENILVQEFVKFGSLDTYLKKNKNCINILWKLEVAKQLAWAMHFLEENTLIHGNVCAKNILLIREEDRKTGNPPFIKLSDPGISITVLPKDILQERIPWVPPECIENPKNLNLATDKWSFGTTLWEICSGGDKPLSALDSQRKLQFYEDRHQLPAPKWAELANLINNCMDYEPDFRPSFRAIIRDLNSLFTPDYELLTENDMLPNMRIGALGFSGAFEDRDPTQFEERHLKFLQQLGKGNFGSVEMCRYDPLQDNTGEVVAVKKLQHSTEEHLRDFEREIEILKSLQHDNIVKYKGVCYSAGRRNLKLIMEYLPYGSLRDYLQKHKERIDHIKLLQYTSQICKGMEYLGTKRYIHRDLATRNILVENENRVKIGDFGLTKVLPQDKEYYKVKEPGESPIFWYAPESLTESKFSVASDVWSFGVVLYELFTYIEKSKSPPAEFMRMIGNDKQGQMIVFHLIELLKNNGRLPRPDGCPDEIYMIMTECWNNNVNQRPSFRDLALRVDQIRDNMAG
T2 sequence (P23458 whole entry): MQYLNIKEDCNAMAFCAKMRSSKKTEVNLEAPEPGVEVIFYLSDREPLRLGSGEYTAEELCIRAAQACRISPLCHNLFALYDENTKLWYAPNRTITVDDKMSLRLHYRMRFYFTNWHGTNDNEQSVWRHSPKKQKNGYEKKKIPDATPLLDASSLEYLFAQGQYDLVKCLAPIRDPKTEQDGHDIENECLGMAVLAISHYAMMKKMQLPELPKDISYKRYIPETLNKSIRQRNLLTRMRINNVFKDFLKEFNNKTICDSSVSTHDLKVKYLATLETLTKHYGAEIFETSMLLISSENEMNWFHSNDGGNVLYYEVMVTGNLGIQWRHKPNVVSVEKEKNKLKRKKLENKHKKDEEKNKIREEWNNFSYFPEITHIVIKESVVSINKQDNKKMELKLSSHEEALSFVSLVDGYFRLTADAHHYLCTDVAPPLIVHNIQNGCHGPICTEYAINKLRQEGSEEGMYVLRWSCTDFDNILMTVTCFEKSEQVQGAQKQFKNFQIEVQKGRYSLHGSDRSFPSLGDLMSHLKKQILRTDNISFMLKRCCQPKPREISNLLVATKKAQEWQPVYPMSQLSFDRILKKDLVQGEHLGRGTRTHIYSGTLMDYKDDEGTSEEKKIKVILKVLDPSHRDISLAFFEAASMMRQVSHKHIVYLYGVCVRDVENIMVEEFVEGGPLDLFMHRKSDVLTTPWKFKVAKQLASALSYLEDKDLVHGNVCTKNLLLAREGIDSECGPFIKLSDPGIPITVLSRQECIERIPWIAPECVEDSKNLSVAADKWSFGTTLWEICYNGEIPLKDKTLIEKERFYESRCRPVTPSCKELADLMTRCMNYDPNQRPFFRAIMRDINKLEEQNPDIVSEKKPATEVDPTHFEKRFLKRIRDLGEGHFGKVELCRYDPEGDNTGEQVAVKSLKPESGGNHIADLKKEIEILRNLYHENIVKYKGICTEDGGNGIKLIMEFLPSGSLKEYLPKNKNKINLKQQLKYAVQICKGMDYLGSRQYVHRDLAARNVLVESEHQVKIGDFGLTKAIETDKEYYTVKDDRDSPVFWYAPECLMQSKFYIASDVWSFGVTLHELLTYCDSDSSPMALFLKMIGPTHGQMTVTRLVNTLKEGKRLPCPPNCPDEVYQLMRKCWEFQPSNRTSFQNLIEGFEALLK

In the case of `CC[C@@](C)(Nc1ccnc(-c2c[nH]c3ncccc23)n1)C(=O)NCC(F)(F)F` [DECERNOTINIB], the IC50 in test [1] was 619 nM; in test [2] it was 50 nM; in test [3], 13.2 nM; in test [4] it was above 10000 nM; in test [5] it was 50 nM; in test [6] it was 24 nM. Further, in test [1], the inhibitory constant (Ki) is 13 nM.

For orientation: IC50 means the point on the concentration scale where inhibition reaches its midpoint. Lower therefore signals greater potency in that assay. What is called Ki is the equilibrium dissociation constant of an inhibitor or competing ligand from its target.
